Test results as given in EP0099438A1, “2-Functionalised diaryl as-triazines useful in therapy” (PIERRE FABRE S.A., priority 1982, dated 1984).

How the values were obtained:
[1] = Acute oral toxicity in mice (LD50, method of Miller and Tainter); conditions: in vivo; mouse about 20 g, oral administration; read-out: DL50 voie orale
Excerpt: L'étude de la toxicité a été effectuée chez la souris conventionnelle pesant environ 20 grammes.
Les substances ont été administrées par voie orale. Les doses létales 50 sont exprimées en mg/kg et ont été calculées selon la méthode de MILLER et TAINTER, Proc. Scc. Exper. Biol. Med. 1944, 57, 261.

[2] = Qualitative solubility in water and solvents; format: physicochemical; conditions: for Insoluble dans: media in which the compound is insoluble; for Soluble dans: media in which the compound is soluble
souris = assay: Phenylbenzoquinone (PBQ) writhing test (Siegmund), analgesic activity; format: in vivo; conditions: po, 0.5 h; mouse, per os 30 minutes before intraperitoneal PBQ injection; read-out: DE50 (the source's name)
Procedure: L'activité sur le test des contorsions à la phényl benzoquinone (PBQ) selon SIEGMUND et Coll., J. Pharm. Exptl. Ther. 1957, 119, 453, a été déterminée après administration du produit per os; la dose est exprimée en mg/kg chez la souris 30 minutes avant l'injection intra-péritonéale de l'agent algogène.
Les résultats sont exprimés en pourcentage de variation du nombre de contorsions. Pour les molécules les plus actives nous avons déterminé la DE50, les résultats sont répertoriés dans le tableau suivant : […]

P.R.P. de LAPIN = assay: In vitro platelet anti-aggregation, arachidonic acid-induced, in rabbit PRP; format: cell-based; conditions: dissolved in PEG 400, incubated 1 minute with PRP before arachidonic acid 2 x 10^-4M; ranking in words
Excerpt: Les produits sont dissous dans le PEG 400, puis additionnés au P.R.P. de LAPIN puis incubés une minute avant l'addition d'agent agrégant (acide arachidonique 2 x 10^-4M). Le produit le plus actif est le ST 938.

| SMILES | LD50 [1] | Insoluble dans [2] | Soluble dans [2] | ED50 (souris) | Propriétés antiagrégantes (in vitro) (P.R.P. de LAPIN) |
| --- | --- | --- | --- | --- | --- |
| COc1ccc(-c2nc(=O)n(CCN3CCOCC3)nc2-c2ccc(OC)cc2)cc1 [ST 728, Oxo-3 morpholino éthyl-2 di(paraméthoxyphényl)-5-6 as triazine] | > 1000 mg/kg | l'eau, les bases diluées et l'éther | les acides, les alcools, le benzène, le chlorure de méthylène et le chloroforme | – | – |
| COc1ccc(-c2nc(=O)n(C(C)CN(C)C)nc2-c2ccc(OC)cc2)cc1 (stereo not shown) [ST 766] | 750 mg/kg | l'eau, les bases diluées, le benzène et l'éther | les acides dilués, les alcools, le chlorure de méthylène et le chloroforme | 11 mg/kg | – |
| C=COCCn1nc(-c2ccc(OC)cc2)c(-c2ccc(OC)cc2)nc1=O [ST 777, Oxo-3 vinyloxyéthyl-2 di(paraméthoxyphényl)-5-6 as triazine] | > 1000 mg/kg | l'eau, les bases et les acides dilués et l'éther | les alcools, le benzène, le chlorure de méthylène et le chloroforme | 10 mg/kg | – |
| COc1ccc(-c2nc(=O)n(CCO)nc2-c2ccc(OC)cc2)cc1 [ST 791, Oxo-3 hydroxyéthyl-2 di(paraméthoxyphényl)-5-6 as triazine] | > 1000 mg/kg | l'eau, les bases et les acides dilués et l'éther | les alcools, le benzène, le chlorure de méthylène et le chloroforme | 9 mg/kg | – |
| CN(C)c1ccc(-c2nc(=O)n(CC(N)=O)nc2-c2ccc(N(C)C)cc2)cc1 [ST 812, Oxo-3 acétamido-2 di(paradiméthylaminophényl)-5-6 as triazine] | > 1000 mg/kg | l'eau, les bases diluées, les alcools, le benzène et l'éther | les acides dilués et le chlorure de méthylène | 12 mg/kg | – |
| CN(C)c1ccc(-c2nc(=O)n(CCO)nc2-c2ccc(N(C)C)cc2)cc1 [ST 817, Oxo-3 hydroxyéthyl-2 di(paradimétnylaminophényl)-5-6 as triazine] | > 1000 mg/kg | les bases diluées aqueuses, l'eau, le benzène et l'éther | les acides dilués, les alcools, le chlorure de méthylène et le chloroforme | 1.5 mg/kg | – |
| CCOC(=O)C(C(=O)OCC)n1nc(-c2ccc(OC)cc2)c(-c2ccc(OC)cc2)nc1=O [ST 824, Oxo-3 diéthylmalonyl-2 di(paraméthoxyphényl)-5-6 as triazine] | > 1000 mg/kg | l'eau, les bases et les acides dilués et l'éther | les alcools, le benzène, le chlorure de méthylène et le chloroforme | – | – |
| C=CCNCCCn1nc(-c2ccc(OC)cc2)c(-c2ccc(OC)cc2)nc1=O [ST 876, Oxalatede l'oxo-3 γallylamino propyl-2 di(paraméthoxyphényl)-5-6 as triazine] | 750 mg/kg | le benzène, l'éther et le chloroforme | l'eau, les alcools, et le chlorure de méthylène | – | – |
| COc1ccc(-c2nc(=O)n(CCCN3CCN(C)CC3)nc2-c2ccc(OC)cc2)cc1 [ST 881, Dichlorhydratede l'oxo-3 N méthyl piperazinyl-3' propyl-2 di(paraméthoxyphényl)-5-6 as triazine] | > 1000 mg/kg | le benzène, le chlorure de méthylène et le chloroforme | l'eau, les acides dilués et les alcools | 6.7 mg/kg | – |
| CN(C)c1ccc(-c2nc(=O)n(CCCCl)nc2-c2ccc(N(C)C)cc2)cc1 [ST 882, Oxo-3 γ-chloropropyl-2 di(paradiméthyiaminophényl) 5-6 as triazine] | > 1000 mg/kg | l'eau et les bases diluées, et l'éther | les acides dilués aqueux, les alcools, le benzène, le chlorure de méthylène et le chloroforme | 4.6 mg/kg | – |
| CN(C)c1ccc(-c2nc(=O)n(CCOC(=O)c3cccnc3)nc2-c2ccc(N(C)C)cc2)cc1 [ST 883, Oxo-3 nicotinoyloxyéthyl-2 di(paradiméthylaminophényl) 5-6 as triazine] | > 1000 mg/kg | l'eau et les bases diluées, l'éther | les acides dilués, les alcools, le benzène, le chloroforme et le chlorure de méthylène | 3.1 mg/kg | – |
| CN(C)c1ccc(-c2nc(=O)n(CC(O)CO)nc2-c2ccc(N(C)C)cc2)cc1 (stereo not shown) [ST 886] | > 1000 mg/kg | l'eau et les bases diluées, l'éther | les acides dilués aqueux, les alcools, le benzène, le chlorure de méthylène et le chloroforme | 5.6 mg/kg | – |
| COc1ccc(-c2nc(=O)n(CCCCl)nc2-c2ccc(OC)cc2)cc1 [ST 938, Oxo-3 chloropropyl-2 di(paraméthoxyphényl)-5-6 as triazine] | ≥ 1000 mg/kg | l'eau, les bases et les acides dilués et l'éther | les alcools, le benzène, le chlorure de méthylène et le chloroforme | – | le plus actif |
